Experimental data: patent US20070207204A1, “Dosage Form for Time-Varying Patterns of Drug Delivery” (ALZA CORPORATION, priority 2001, published 2007)

Test: Osmotic pressure of saturated solutions of osmotically effective compounds and mixtures (vapor pressure osmometer)
Format: physicochemical
Conditions: saturated solution in water at 37° C.; Model 302B Vapor Pressure Osmometer
From the text: The term “osmagent”, as used herein, includes osmotically effective solutes, osmotically effective compounds, and osmotic agents. […] Osmotically effective compounds useful for the present purpose include magnesium sulfate, magnesium chloride, sodium chloride, lithium chloride, potassium sulfate, sodium carbonate, sodium sulfite, lithium sulfate, potassium chloride, calcium bicarbonate, sodium sulfate, calcium sulfate, potassium acid phosphate, calcium lactate, d-mannitol, urea, inositol, magnesium succinate, tartaric acid, carbohydrates such as raffinose, sucrose, glucose, maltodextrins, α-d-lactose monohydrate, and mixtures thereof. The osmotically effective compound in layer 18 can be in any physical form such as particle, crystal, pellet, tablet, strip, ground, pulverized, film, or granule. The osmotic pressure of saturated solutions of various osmotically effective compounds and for mixtures of osmotic compounds at 37° C. in water, is listed in Table 1. The osmotic pressure can be measured by a commercially available osmometer that measures the vapor pressure difference between pure water and the solution to be analyzed. According to standard thermodynamic principles, the vapor pressure difference is converted into osmotic pressure. In Table 1, osmotic pressures of from 20 atm to 500 atm are set forth. However, the invention includes the use of lower osmotic pressures, and higher osmotic pressures than from 20 atm to 500 atm. The osmometer used for the present measurements is Model 302B, Vapor Pressure Osmometer, manufactured by the Hewlett Packard Co., Avondale, Pa.
In the case of `O=C(CO)[C@@H](O)[C@H](O)[C@H](O)CO` [Fructose], the “OSMOTIC PRESSURE (atm)” value is reported as 355 atm. For `OC[C@@H](O)[C@@H](O)[C@H](O)[C@H](O)CO` [Mannitol], the “OSMOTIC PRESSURE (atm)” value was 38 atm. In the case of `[Cl-].[K+]` [Potassium Chloride], the “OSMOTIC PRESSURE (atm)” value is reported as 245 atm. With `O=S(=O)([O-])[O-].[K+].[K+]` [Potassium Sulfate] the “OSMOTIC PRESSURE (atm)” value was 39 atm. With `[Cl-].[Na+]` [Sodium Chloride] the “OSMOTIC PRESSURE (atm)” value was 356 atm. In the case of `O.O.O.O.O.O.O.O=P([O-])([O-])O.[Na+].[Na+]` [Sodium Phosphate Dibasic-7H20], the “OSMOTIC PRESSURE (atm)” value is reported as 31 atm. With `O.O.O.O.O.O.O.O.O.O.O.O.O=P([O-])([O-])O.[Na+].[Na+]` [Sodium Phosphate Dibasic-12H20] the “OSMOTIC PRESSURE (atm)” value was 31 atm. With `O=P([O-])([O-])O.[Na+].[Na+]` [Sodium Phosphate Dibasic-Anhydrous] the “OSMOTIC PRESSURE (atm)” value was 29 atm. With `O.O=P([O-])(O)O.[Na+]` [Sodium Phosphate Monobasic-H20] the “OSMOTIC PRESSURE (atm)” value was 28 atm. For `O.O.O.O.O.O.O.O.O.O.O.O.O=P([O-])([O-])[O-].[Na+].[Na+].[Na+]` [Sodium Phosphate Tribasic-12H20], the “OSMOTIC PRESSURE (atm)” value was 36 atm. For `OC[C@H]1O[C@@](CO)(O[C@H]2O[C@H](CO)[C@@H](O)[C@H](O)[C@H]2O)[C@@H](O)[C@@H]1O` [Sucrose], the “OSMOTIC PRESSURE (atm)” value was 150 atm.
